Results as given in US6710090B2, “Inhibitory or blocking agents of molecular generating and/or inducing functions” (priority 1994, dated 2004).
Like-named read-outs stand apart in the source and are kept apart here.

How the values were obtained:
thrombin = thrombin (Homo sapiens, UniProt P00734); assay: Function and configuration of thrombin, electrophoresis; type: biochemical; set-up: thrombin (Behlinger Manheim-Yamanouchi Co.) was investigated by electrophoresis; purchased Behlinger Manheim-Yamanouchi Co; details: after treatment with Yoshixol 4 μl
Description: (§1) Each physiological effect of trypsin (Wakou Jyunyaku Ltd.) and thrombin (Behlinger Manheim-Yamanouchi Co.) was investigated by electrophoresis. When trypsin was added to bovine albumin (Sigma Co. Saint Louis, Mo., USA) or myoglobin (Sigma Co. Saint Louis, Mo., USA), each primary structure of proteins which consist of albumin was altered by proteolytic action of trypsin. In addition, when thrombin was added to human fibrinogen (Behlinger Manheim-Yamanouchi Co.), a primary structure of proteins which consists of fibrinogen was not found.

[1] = test system: E79 double-chained DNA phage; assay: Effect on bacteriophage, numbers of plaques; type: cell-based, bacteriophage (indication bacteria pseudomonas aeruginosa)
Description: Yoshixol (4 μl) were added in 1 ml of phage solution (E79 double-chained DNA phage) which was adjusted on about 10^7 per 1 ml, and were mixed well. Then, 10 μl of the mixture sampled after 5, 10, 20, 30 minutes was diluted by quickly adding in 10 ml of medium, so that 100 μl of the phage-diluted solution put into the test tube as the upper plate with the warmed gelatin agar, which was mixed with 100 μl of the indication bacterial solution (pseudomonas aeruginosa) cultured for one night. Then, the adjusted solution of the phages in the test tube was dropped on the agar plate and, homogeneous surface of the upper agar plate was produced by smoothly rotating the plate on the table. After resting it on the table about 10 minute when multilayer gelatin agar sufficiently became solid, they were stocked into the incubator at 37° C. After one night incubation, numbers of plaques were counted. As a result, the numbers of plaques in the 5 min-treated phage solution, in 10 min-treated phage solution and in the […] phage solution with Yoshixol decreased to 33%, 15% and 6% of the plaques formation in the non-treated phage solution, respectively.

[2] = test system: human blood (erythrocytes); assay: Preservative effect on organs and tissues, stored human blood; type: cell-based; details: 5 ml human blood, 4 μl of Yoshixol
Description: After sampling 5 ml of human blood from a cubital vein, the blood sample was replaced into the vacuum tube with 10 ml capacity and was mixed in a gentle. The vacuum tubes were divided by two group; one group is nontreated and another treated with 4 μl of Yoshixol. Then, changes in morphological aspects of blood, which were stored at room temperature, were observed by a transmission type and scanning electron microscopes at 30 minutes, one hour and 1 month after the sampling. […] It was existed likely as a destroyed and aggregated mass. […] Many stomatocytes (lip-like erythrocyte) and echinocyte which is appeared at a lack of pyruvate kinase were observed.

[3] = Stability of solution under light; type: physicochemical; details: sealed glass tube, stocked under room light, 6 months after the synthesis
Description: <Stability of Solution Under Light>

trypsin = assay: Function and configuration of trypsin, electrophoresis; type: biochemical; details: after treatment with Yoshixol 4 μl
Description: as §1

[4] = Softening and flexibility effect on skin; set-up: species or system rabbit and dog; details: histology, hematoxylin eosin staining
Description: In order to investigate changes of softening and flexibility on skin from rabbit and dog, each skin was is dipped in 5 ml of physiological saline with 10 μl of the test solution. This test solution was prepared from 88 ml of physiological saline with 2 ml of polyoxyethylene (20) sorbitan monoolate 1 (Wakou Jyunyaku Co.) that is identical to Tween80 (ICI Co.) as the basal solution of control. As the treated solution, 10 ml of Yoshixol was added in the basal solution. […] Surgical stitching by the needle was easily to be inserted and transfixed in the skin. […] And, the sample treated with Yoshixol was observed as the preparation which was made from a fresher sample by hematoxylin eosin staining in contrast to the skin sample treated with the test solution of control. Moreover, a similar observation on histological pictures of each sample was obtained even when each skin sample was thawed at 20° C. after storaging each sample at 4° C. in the refrigeration for one month.

human blood serum = assay: Composition of amino acids in human blood serum; type: biochemical; details: Yoshixol 4 μl
Description: Changes in composition of amino acids were analyzed by use of 1 ml of human blood serum, 1 ml of human fibrinogen (concentration of 160 mg/dl), 1 ml of human thrombin before and after treatment with Yoshixol (4 μl). The total amino acids in the human blood serum which was treated with Yoshixol decreased by 41%. And, ratio of each composition was altered after the treatment so that as an example the concentration of phosphoserine increased about 20 times which level was from 7.2 picomole to 164.8 picomole.

[5] = test system: methitilin resistance staphylococcus aureus, MRSA (stock no. SCK18); type: cell-based; details: for colony formation unit (CFU): 24-hour incubation at 37° C., initial 10^8, control 10^10

## C=C1CC(C)(C)C=CC1=O [Yoshixol, 4,4-dimethyl-6-methylene-2-cyclohexen-1-one]
thrombin
  physiological function of thrombin to fibrinogen: did not occur
  primary structure of thrombin (electrophoresis): did not show any electrophoretic changes
[1]; Yoshixol 4 μl in 1 ml phage solution (about 10^7 per ml), 5 min-treated
  numbers of plaques, of the plaques formation in the non-treated phage solution: 33%
[1]; Yoshixol 4 μl in 1 ml phage solution, 10 min-treated
  numbers of plaques, of the plaques formation in the non-treated phage solution: 15%
[1]; Yoshixol 4 μl in 1 ml phage solution, 15 min-treated
  numbers of plaques, of the plaques formation in the non-treated phage solution: 6%
[1]; Yoshixol 4 μl in 1 ml phage solution, treated over 20 min
  plaques formation: plaques formation did not find
[2]; room temperature
  aggregation of erythrocytes: did not show an aggregation with fibrin networks
[2]; stored at room temperature
  cell membrane and intracellular organella of erythrocytes: preserved normally over 1 month
[3]
  Changes in coloring, viscosity and odor: did not change
trypsin
  physiological function of trypsin to bovine albumin, myoglobin: did not occur
  primary structure of trypsin (electrophoresis): did not show any electrophoretic changes
[4]
  structure damages of each skin: did not found histologically
Human blood serum; 1 ml human blood serum
  decrease of total amino acids in human blood serum: 41%
Human blood serum; human blood serum
  increase of concentration of phosphoserine: about 20 times
Human blood serum; human blood serum, before 7.2 picomole
  concentration of phosphoserine after treatment: 164.8 picomole
[5]; 0.25 μl per 1 ml of culture medium
  colony formation unit (CFU): 10^4 CFU
[5]; 2 μl per 1 ml of culture medium
  colony formation unit (CFU): 10^2 CFU
[5]; 10 μl per 1 ml of culture medium
  colony formation unit (CFU): zero
[5]; 50 μl in the whole space of the schale, indirect contact, 24 hours, 37° C.
  proliferation with evaporating component of Yoshixol: did not occur
[5]; after Yoshixol
  histological aspect of cell death, scanning electron microscopy: separated to an individual bacterial cell
